We go through three molecules from PMC6332312, “N-Monosubstituted Methoxy-oligo(ethylene glycol) Carbamate Ester Prodrugs of Resveratrol” (Molecules, 2015).

The nature of series [1]: Stability (hydrolysis) in rodent whole blood, 37 °C. The series is classed as in vitro ADME. Conditions: rat blood; for kIII (hydrolysis rate constant, tri- to disubstituted): pseudo-first order fit; for half-life at 5 µM: whole blood, 5 µM compound. On the procedure: (§1) Kinetic analysis of the data was performed by assuming that hydrolysis to resveratrol occurred via consecutive losses of the three protecting groups in pseudo-first order processes and by considering each pair of isomeric intermediates (potentially) resulting from the first and second hydrolysis steps as a single species, i.e. the two monosubstituted and the two disubstituted intermediates were handled as species I and II, respectively (Scheme 3).
Rats were anesthetized and blood was withdrawn from the jugular vein, heparinised and transferred into tubes containing EDTA. Blood samples (1 mL) were spiked with 5 µM compound (dilution from a 5 mM stock solution in DMSO), and incubated at 37 °C for 4 h (the maximum period allowed by blood stability). Aliquots were taken after 10 min, 30 min, 1 h, 2 h and 4 h and treated as described below (blood sample treatment and analysis). Cleared blood samples were finally subjected to HPLC-UV analysis.
(§2) Before starting the treatment, 4,4′-dihydroxybiphenyl was added as internal standard to a carefully-measured blood volume (25 µM final concentration). Blood was then stabilized with a freshly-prepared 10 mM solution of ascorbic acid (0.1 vol) and acidified with 0.6 M acetic acid (0.1 vol); after mixing, an excess of acetone (4 vol) was added, followed by sonication (2 min) and centrifugation (12,000× g, 7 min, 4 °C). The supernatant was finally collected and stored at −20 °C. Before analysis, acetone was allowed to evaporate at room temperature using a Univapo 150H (UniEquip, Martinsried, Germany) vacuum concentrator centrifuge, and up to 40 μL of CH3CN were added to precipitate residual proteins. After centrifugation (12,000× g, 5 min, 4 °C), cleared samples were directly subjected to HPLC-UV analysis. Metabolites and hydrolysis products were identified by comparison of chromatographic retention time with true samples.

Series [2] is described as follows: Hydrolysis in PBS 0.1 M at pH 6.8 (intestinal pH), 37 °C. Type of series: physicochemical. The conditions noted are these: pH 6.8, 37 °C; for half-life at 5 µM: 0.1 M PBS buffer, 5 µM compound; for kII (hydrolysis rate constant, di- to monosubstituted) / kIII (hydrolysis rate constant, tri- to disubstituted): pseudo-first order fit. How it is done: as §1
As hydrolysis proceeds resveratrol will eventually form with the kinetics dictated by the constants, up to 100% conversion. The fit of the experimental data was obtained using a set of equations analogous to those utilized by Kozerski et al. and in our previous work.
The chemical stability of all new compounds was tested in aqueous media imitating gastric (0.1 N HCl, NormaFix) and intestinal (0.1 M PBS buffer, at pH 6.8) pH conditions. A 5 µM solution of the compound was prepared from a 5 mM stock solution in DMSO, and incubated at 37 °C for 24 h; samples withdrawn at different times were analyzed by HPLC-UV. Hydrolysis products were identified by HPLC/ESI-MS analysis of selected samples. Non-linear curve fitting was performed using Origin 8.0 data analysis software, using the equations described in [61, 62].

A short description of series [3]: Pharmacokinetic study after single intragastric bolus to rats. The series is classed as in vivo, male Wistar rats. The conditions noted are these: rat, single intragastric bolus 88 µmol/kg; for Tmax: male, Wistar, whole blood, po, 88 umol/kg, read-out: time of peak blood level after administration (converted); for peak blood concentration of prodrug (absorption): N = 3. On the procedure:
All the N-monosubstituted methoxy-oligo(ethylene glycol) carbamate ester prodrugs were tested for their in vivo absorption and metabolism. Pharmacokinetic studies were performed with rats, and each compound was administered as a single intragastric bolus, in an equimolar dose/kg body weight (88 µmol/kg). Blood samples were taken at different time points, treated as described in the Materials and Methods section and analyzed.
as §2
Derivatives 2–4 were administered to overnight-fasted male Wistar rats from the facility of the Department of Biomedical Sciences, University of Padova, as a single intragastric dose (88 µmol/kg, dissolved in 250 µL DMSO) delivered with a commercial stainless steel feeding tube (www.2biol.com) to have a precise starting time. Wistar rats are commonly used for such studies (e.g., [60]). Relatively young adults (3–5 months) were used in order to have a fully developed metabolism as well as a body weight (300–400 g) which would limit the amount of synthetic compound to be used.
Blood samples were obtained by the tail bleeding technique: before drug administration, rats were anesthetized with isoflurane and the tip of the tail was cut off; blood samples (80–100 µL each) were then taken from the tail tip at different time points after drug administration. Blood was collected in heparinized tubes, kept in ice and treated as described above within 10 min. All experiments involving animals were performed with the permission and supervision of the University of Padova Ethical Committee for Experimentation on Animals (CEASA) and Central Veterinary Service, in compliance with Italian Law DL 116/92, embodying EU Directive 86/609. Significance in comparisons was assessed using the Wilcoxon Rank Test.

SMILES strings stand for the structures.

For `COCCOCCOCCNC(=O)Oc1ccc(/C=C/c2cc(OC(=O)NCCOCCOCCOC)cc(OC(=O)NCCOCCOCCOC)c2)cc1` [Compound 2, (E)-5-(4-(2-(2-(2-Methoxyethoxy)ethoxy)ethyl)carbamate)-1,3-phenylene bis((2-(2-(2-methoxyethoxy)ethoxy)ethyl)carbamate)], in series [1], the “kIII (hydrolysis rate constant, tri- to disubstituted)” value (“kIII” for short) was 1.47 ± 0.08 h⁻¹ and the half-life (as a rule, the time needed for the level to fall by half in the phase considered) at 5 µM was 30 min. For the same molecule, in series [2], the half-life at 5 µM is 360 min; the “kII (hydrolysis rate constant, di- to monosubstituted)” value stood at 0.030 ± 0.002 h⁻¹; the “kIII” value was 0.104 ± 0.002 h⁻¹. Besides, the “appearance of resveratrol, derivatives or metabolites (stilbene derivatives) in blood samples” value (“appearance of resveratrol” below) in series [3] is recorded as “did not result in the appearance of detectable amounts”.

For the molecule `COCCOCCOCCOCCNC(=O)Oc1ccc(/C=C/c2cc(OC(=O)NCCOCCOCCOCCOC)cc(OC(=O)NCCOCCOCCOCCOC)c2)cc1` [Compound 3, (E)-5-(4-(5,8,11-Tetraoxatridecan-13-ylcarbamate)styryl)-1,3-phenylene bis(2,5,8,11-tetraoxatridecan-13-ylcarbamate)], in series [1], the “kIII” value was found to be 2.0 ± 0.2 h⁻¹ and the half-life at 5 µM is 18 min. Also, in series [2], the half-life at 5 µM is 210 min; the “kII (hydrolysis rate constant, di- to monosubstituted)” value came out at 0.042 ± 0.005 h⁻¹; the “kIII” value was 0.134 ± 0.007 h⁻¹. For the same molecule, in series [3], the Tmax was 10 min; the “appearance of resveratrol” value is “measurable levels”; the “peak blood concentration of prodrug (absorption)” value is recorded as 0.3 µM.

`COCCOCCOCCOCCOCCOCCNC(=O)Oc1ccc(/C=C/c2cc(OC(=O)NCCOCCOCCOCCOCCOCCOC)cc(OC(=O)NCCOCCOCCOCCOCCOCCOC)c2)cc1` [Compound 4, (E)-5-(4-(2,5,8,11,14,17-Hexaoxanonadecan-19-ylcarbamate)styryl)-1,3-phenylene bis(2,5,8,11,14,17-hexaoxanonadecan-19-ylcarbamate)]: in series [1], the “kIII” value came to 1.25 ± 0.08 h⁻¹ and the half-life at 5 µM is 30 min. In series [2], the half-life at 5 µM is 270 min; the “kII (hydrolysis rate constant, di- to monosubstituted)” value amounted to 0.051 ± 0.001 h⁻¹; the “kIII” value was determined as 0.158 ± 0.002 h⁻¹. In addition, in series [3], the Tmax is 10 min; the “appearance of resveratrol” value was “measurable levels”; the “peak blood concentration of prodrug (absorption)” value came to 0.1 µM.
